Literature values as cited in US20060106004A1, “Unique methods and formulations of bio-identical sex steroids for the treatment of pathophysiologic aberrations of menopause” (priority 2004, published 2006).

What was measured:
mammary carcinoma = settings: following radiation or carcinogenesis
metastatic breast cancer = settings: doses from 2.5 to 15 mg/day
uterus = settings: ovariectomized rats

SMILES: C[C@]12CC[C@@H]3c4ccc(O)cc4CC[C@H]3[C@@H]1C[C@@H](O)[C@@H]2O [Estriol, estriol]
- reduction of mammary carcinoma rates (mammary carcinoma): 80%
- proportion of women with arrested growth and remission of metastatic lesions (metastatic breast cancer): Over ⅓
- stimulation of uterine weights (uterus): does not significantly stimulate uterine weights
